According to ChEMBL document CHEMBL6134895, “Strategic Design and Optimization of Umifenovir Analogues: Balancing Antiviral Efficacy and hERG Toxicity against SARS-CoV-2” (J Med Chem, 2025):
The source made the active and inactive calls. No cut-off for these calls is given here.

Legend:
SARS-CoV-2 [1] = test: Antiviral activity against SARS CoV-2 Wuhan infected in African green monkey Vero E6 cells assessed as virus inactivation at 5 uM pretreated for 15 mins followed by compound removal and induction of viral infection for 1 hr and subsequent removal of inoculum and further addition of media containing compound measured after 48 hrs by RT-qPCR analysis relative to control; format: functional, Severe acute respiratory syndrome coronavirus 2; conditions: time 48.25 hrs
Vero C1008 = test: Cytotoxicity against African green monkey Vero E6 cells assessed as cell viability at 5 uM incubated for 48 hrs by MTT assay; format: toxicity, cell-based; conditions: chlorocebus sabaeus, vero c1008, 48 h, 5 µM
SARS-CoV-2 [2] = test: Antiviral activity against SARS CoV-2 Wuhan infected in African green monkey Vero E6 cells assessed as inhibition of viral replication pretreated for 15 mins followed by compound removal and induction of viral infection for 1 hr and subsequent removal of inoculum and further addition of media containing compound measured after 48 hrs by RT-qPCR analysis; format: functional, organism-based; conditions: Severe acute respiratory syndrome coronavirus 2, time 48.25 hrs
SARS-CoV-2 [3] = test: Antiviral activity against SARS CoV-2 Wuhan infected in African green monkey Vero E6 cells assessed as virus inactivation at 10 uM pretreated for 15 mins followed by compound removal and induction of viral infection for 1 hr and subsequent removal of inoculum and further addition of media containing compound measured after 48 hrs by RT-qPCR analysis relative to control; format: functional
SARS-CoV-2 [4] = test: Antiviral activity against SARS CoV-2 Wuhan infected in African green monkey Vero E6 cells assessed as inhibition of viral replication pretreated for 15 mins followed by compound removal and induction of viral infection for 1 hr and subsequent removal of inoculum and further addition of media containing compound measured after 24 hrs by cell-based ELISA; format: functional, organism-based; conditions: for inhibition: Severe acute respiratory syndrome coronavirus 2, time 24.25 hrs; for IC50: Severe acute respiratory syndrome coronavirus 2, Wuhan, Vero C1008
[5] = target: Voltage-gated inwardly rectifying potassium channel KCNH2 (Homo sapiens, UniProt Q12809); test: Inhibition of hERG extracted from membrane (unknown origin) incubated for 4 hrs by fluorescence polarization assay; format: toxicity, cell membranes
SARS-CoV-2 [6] = test: Antiviral activity against SARS CoV-2 Wuhan infected in African green monkey Vero E6 cells assessed as virus inactivation at 1 uM pretreated for 15 mins followed by compound removal and induction of viral infection for 1 hr and subsequent removal of inoculum and further addition of media containing compound measured after 48 hrs by RT-qPCR analysis relative to control; format: functional, Severe acute respiratory syndrome coronavirus 2; conditions: time 48.25 hrs
[7] = Severe acute respiratory syndrome coronavirus 2, time 48.25 hrs

Voltage-gated inwardly rectifying potassium channel KCNH2, sequence (Q12809 whole entry): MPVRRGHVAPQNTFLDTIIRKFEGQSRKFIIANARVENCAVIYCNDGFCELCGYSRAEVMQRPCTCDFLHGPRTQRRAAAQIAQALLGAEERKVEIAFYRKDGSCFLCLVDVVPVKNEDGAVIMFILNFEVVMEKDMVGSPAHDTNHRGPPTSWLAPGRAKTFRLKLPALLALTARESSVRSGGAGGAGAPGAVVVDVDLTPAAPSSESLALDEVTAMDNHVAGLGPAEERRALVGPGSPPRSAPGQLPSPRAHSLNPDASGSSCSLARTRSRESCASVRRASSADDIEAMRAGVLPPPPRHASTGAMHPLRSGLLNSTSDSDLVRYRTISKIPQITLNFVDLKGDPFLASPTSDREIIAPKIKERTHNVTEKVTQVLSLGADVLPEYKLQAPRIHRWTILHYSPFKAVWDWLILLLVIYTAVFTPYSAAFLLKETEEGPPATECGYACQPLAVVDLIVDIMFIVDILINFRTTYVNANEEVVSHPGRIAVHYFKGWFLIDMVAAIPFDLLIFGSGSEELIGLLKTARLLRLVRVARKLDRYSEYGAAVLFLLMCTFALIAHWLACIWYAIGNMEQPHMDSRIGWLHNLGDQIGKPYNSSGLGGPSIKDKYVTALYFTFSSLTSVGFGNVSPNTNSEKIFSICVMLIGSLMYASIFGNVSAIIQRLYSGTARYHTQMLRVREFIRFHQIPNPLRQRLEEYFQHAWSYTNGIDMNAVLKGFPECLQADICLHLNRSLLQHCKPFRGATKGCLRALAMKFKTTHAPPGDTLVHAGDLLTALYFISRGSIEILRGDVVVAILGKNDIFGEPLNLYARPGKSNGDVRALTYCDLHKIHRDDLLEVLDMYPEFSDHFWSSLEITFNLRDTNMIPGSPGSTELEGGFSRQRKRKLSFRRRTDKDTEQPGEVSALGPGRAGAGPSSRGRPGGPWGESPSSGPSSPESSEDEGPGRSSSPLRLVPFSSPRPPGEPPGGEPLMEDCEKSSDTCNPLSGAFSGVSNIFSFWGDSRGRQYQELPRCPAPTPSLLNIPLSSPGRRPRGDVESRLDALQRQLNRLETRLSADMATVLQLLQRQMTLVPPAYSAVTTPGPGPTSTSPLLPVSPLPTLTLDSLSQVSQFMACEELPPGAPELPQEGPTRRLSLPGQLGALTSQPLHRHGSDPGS

Row | SMILES | Activity (Vero C1008) | inhibition (SARS-CoV-2 [2]) | Activity (SARS-CoV-2 [3]; [7]) | IC50 (SARS-CoV-2 [4]) [µM] | other results
1 | CCOC(=O)c1c(CSc2ccc(F)cc2)n(Cc2ccc(F)cc2)c2cc(Br)c(O)cc12 | Non-toxic | Not active; No Significant Effect | – | – | Activity (SARS-CoV-2 [1]): >95%
2 | CCOC(=O)c1c(CSc2ccccc2)n(Cc2cccc3ccccc23)c2cc(Br)c(O)cc12 | – | – | Not active; No Significant Effect Observed | – | inhibition (SARS-CoV-2 [4]): inactive
3 | Cn1cc(NC(=O)c2c(CSc3ccccc3)n(C)c3cc(Br)c(O)cc23)cn1 | Non-toxic | – | – | 1.5 | –
4 | CCOC(=O)c1c(CSc2ccccc2OC)n(C)c2cc(Br)c(O)c(CN(C)C)c12 | – | Not active; No Significant Effect | Not active; No Significant Effect Observed | – | –
5 | CCOC(=O)c1c(CSc2ccc(C)cc2C)n(Cc2ccc(C)cc2)c2cc(Br)c(O)cc12 | Non-toxic | – | – | 2.1 | IC50 [5]: > 30 µM; Activity (SARS-CoV-2 [1]): >99%
6 | CCOC(=O)c1c(CSc2c(C)cc(C)cc2C)n(C)c2cc(Br)c(O)c(CN(C)C)c12 | Non-toxic | Not active; No Significant Effect | Not determined; No Significant Effect Observed | – | –
7 | CCOC(=O)c1c(CSc2ccc(F)cc2C)n(Cc2cccc3ccccc23)c2cc(Br)c(O)cc12 | Non-toxic | – | Not active; No Significant Effect Observed | – | inhibition (SARS-CoV-2 [4]): inactive
8 | CCOC(=O)c1c(CSc2ccc(F)cc2)n(C)c2cc(Br)c(O)c(CN(C)C)c12 | Non-toxic | Not active; No Significant Effect | – | – | –
9 | CCOC(=O)c1c(CSc2ccccc2F)n(C)c2cc(Br)c(O)cc12 | – | Not active; No Significant Effect | – | – | inhibition (SARS-CoV-2 [4]): inactive; Activity (SARS-CoV-2 [6]): <90%
10 | CCOC(=O)c1c(CSc2c(C)cc(C)cc2C)n(C)c2cc(Br)c(O)cc12 | Non-toxic | – | Not determined; No Significant Effect Observed | 8.75 | –
11 | CN1CCC(NC(=O)c2c(CSc3ccc(F)cc3)n(C)c3cc(Br)c(O)cc23)CC1 | Non-toxic | – | – | 3.8 | –
12 | Cn1c(CSc2ccc(F)cc2)c(C(=O)Nc2cc[nH]n2)c2cc(O)c(Br)cc21 | Non-toxic | – | – | 2.3 | IC50 [5]: > 30 µM
13 | CCOC(=O)c1c(CSc2ccccc2)[nH]c2cc(Br)c(O)cc12 | Non-toxic | Not active; No Significant Effect | Not active; No Significant Effect Observed | – | –
14 | CCOC(=O)c1c(CSc2ccc(F)cc2)n(C)c2cc(Br)c(O)cc12 | Non-toxic | – | – | – | Activity (SARS-CoV-2 [3]; time 48.25 hrs): 99.9%; inhibition (SARS-CoV-2 [4]): inactive; Activity (SARS-CoV-2 [6]): <90%
15 | CCOC(=O)c1c(CSc2ccccc2OC(F)(F)F)n(C)c2cc(Br)c(O)cc12 | – | Not active; No Significant Effect | Not active; No Significant Effect Observed | – | –
16 | CCOC(=O)c1c(CSc2ccccc2)n(Cc2ccc(F)cc2)c2cc(Br)c(O)cc12 | Non-toxic | – | – | 1.1 | IC50 [5]: > 30 µM; Activity (SARS-CoV-2 [1]): >99%
17 | CCOC(=O)c1c(CSc2ccc(F)cc2F)n(C)c2cc(Br)c(O)cc12 | – | inactive | Not active; No Significant Effect Observed | – | inhibition (SARS-CoV-2 [4]): inactive
18 | CCOC(=O)c1c(CSc2c(C)cc(C)cc2C)n(Cc2ccc(C)cc2)c2cc(Br)c(O)c(CN(C)C)c12 | Non-toxic | – | Not determined; No Significant Effect Observed | 10 | IC50 [5]: 3.85 µM
19 | CCOC(=O)c1c(CSc2ccc(C)cc2C)n(Cc2ccc(-c3ccccc3)cc2)c2cc(Br)c(O)cc12 | Non-toxic | Not active; No Significant Effect | Not active; No Significant Effect Observed | – | –
20 | CCOC(=O)c1c(CSc2ccccc2OC(F)(F)F)n(C)c2cc(Br)c(O)c(CN(C)C)c12 | – | Not active; No Significant Effect | Not active; No Significant Effect Observed | – | –

Row | SMILES | Activity (Vero C1008) | inhibition (SARS-CoV-2 [2]) | Activity (SARS-CoV-2 [3]; [7]) | IC50 (SARS-CoV-2 [4]) [µM] | other results
21 | CC(C)N1CCN(C(=O)c2c(CSc3ccc(F)cc3)n(C)c3cc(Br)c(O)cc23)CC1 | Non-toxic | – | – | 1.7 | –
22 | CCOC(=O)c1c(CSc2c(C)cc(C)cc2C)n(Cc2cccc3ccccc23)c2cc(Br)c(O)cc12 | Non-toxic | – | Not active; No Significant Effect Observed | – | inhibition (SARS-CoV-2 [4]): inactive
23 | CCOC(=O)c1c(CSc2ccc(C)cc2C)n(Cc2ccc(F)cc2)c2cc(Br)c(O)cc12 | Non-toxic | Not active; No Significant Effect | Not active; No Significant Effect Observed | – | –
24 | CCOC(=O)c1c(CSc2ccc(C)cc2C)n(Cc2ccc(C#N)cc2)c2cc(Br)c(O)cc12 | Non-toxic | Not active; No Significant Effect | Not active; No Significant Effect Observed | – | –
25 | CC(C)N1CCC(NC(=O)c2c(CSc3ccccc3)n(C)c3cc(Br)c(O)cc23)CC1 | Non-toxic | – | – | 6.6 | IC50 [5]: 7.09 µM
26 | CCOC(=O)c1c(CSc2ccc(C)cc2C)n(Cc2ccc(Cl)cc2)c2cc(Br)c(O)cc12 | – | Not active; No Significant Effect | Not active; No Significant Effect Observed | – | –
27 | CCOC(=O)c1c(CSc2c(C)cc(C)cc2C)n(Cc2ccc(F)cc2)c2cc(Br)c(O)cc12 | Non-toxic | – | – | 1.3 | Activity (SARS-CoV-2 [1]): >95%
28 | CCOC(=O)c1c(CSc2ccccc2)n(C)c2cc(Br)c(O)cc12 | Non-toxic | – | – | 8.4 | Activity (SARS-CoV-2 [6]): <90%
29 | Cn1c(CSc2ccc(F)cc2)c(C(=O)NC(C)(C)C)c2cc(O)c(Br)cc21 | – | – | – | – | inhibition (SARS-CoV-2 [4]): inactive
30 | Cc1ccc(Cn2c(CSc3c(C)cc(C)cc3C)c(C(=O)NC3CCN(C)CC3)c3cc(O)c(Br)cc32)cc1 | Non-toxic | – | – | – | –
31 | CCOC(=O)c1c(CSc2ccccc2OC)n(C)c2cc(Br)c(O)cc12 | – | Not active; No Significant Effect | Not active; No Significant Effect Observed | – | –
32 | CCOC(=O)c1c(CSc2ccc(F)cc2)n(Cc2ccc(C)cc2)c2cc(Br)c(O)cc12 | Non-toxic | Not active; No Significant Effect | Not active; No Significant Effect Observed | – | –
33 | Cn1c(CSc2ccccc2)c(C(=O)N2CCC(N3CCOCC3)CC2)c2cc(O)c(Br)cc21 | Non-toxic | – | – | 3.1 | IC50 [5]: 13 µM
34 | CCOC(=O)c1c(CSc2ccc(C)cc2C)n(Cc2ccc(C(C)(C)C)cc2)c2cc(Br)c(O)cc12 | Non-toxic | Not active; No Significant Effect | Not active; No Significant Effect Observed | – | –
35 | CC(C)N1CCC(NC(=O)c2c(CSc3ccc(F)cc3)n(C)c3cc(Br)c(O)cc23)CC1 | – | – | – | – | inhibition (SARS-CoV-2 [4]): inactive
36 | CCC(CC)COC(=O)[C@H](C)N[P@](=O)(OC[C@H]1O[C@@](C#N)(c2ccc3c(N)ncnn23)[C@H](O)[C@@H]1O)Oc1ccccc1 | – | – | – | 0.76 | –
37 | CCOC(=O)c1c(CSc2ccccc2C(F)(F)F)n(C)c2cc(Br)c(O)cc12 | – | Not active; No Significant Effect | Not active; No Significant Effect Observed | – | –
38 | CCOC(=O)c1c(CSc2ccccc2C(F)(F)F)n(C)c2cc(Br)c(O)c(CN(C)C)c12 | – | Not active; No Significant Effect | Not active; No Significant Effect Observed | – | –
39 | CC(C)N1CCN(C(=O)c2c(CSc3ccccc3)n(C)c3cc(Br)c(O)cc23)CC1 | Non-toxic | – | – | 3.05 | IC50 [5]: 1.19 µM
40 | Cn1c(CSc2ccc(F)cc2F)c(C(=O)NC(C)(C)C)c2cc(O)c(Br)cc21 | Non-toxic | – | – | 4.6 | –
